Reference: the PolyMetriX glass transition set
± gives the standard deviation of the reports.

Row | Compound | glass transition temperature [°C]
1 | *CCN(*)C(=O)c1ccc(F)c(F)c1F (repeat unit) | 102.00
2 | *c1ccc2c(c1)C(=O)N(c1cccc(C(F)(F)C(F)(F)C(F)(F)C(F)(F)C(F)(F)c3cccc(N4C(=O)c5ccc(C(F)(F)C(F)(F)C(F)(F)C(F)(F)C(F)(F)C(F)(F)C(*)(F)F)cc5C4=O)c3)c1)C2=O (repeat unit) | 108.50
3 | *Oc1ccc(NC(=O)c2ccc(S(=O)(=O)c3ccc(C(=O)Nc4ccc(Oc5ccc(C(c6ccc(*)cc6)(C(F)(F)F)C(F)(F)F)cc5)cc4)cc3)cc2)cc1 (repeat unit) | 250.00
4 | *C(=O)Nc1c(C)cc(Cc2cc(C)c(NC(=O)c3ccc4c(c3)C(=O)N(c3ccc(/N=N/c5ccc(F)cc5)c(N5C(=O)c6ccc(*)cc6C5=O)c3)C4=O)c(C)c2)cc1C (repeat unit) | 279.00
5 | *O[Si](*)(C)CCCC(=O)O (repeat unit) | -29.00
6 | *CCOCCOc1ccc(C(=O)Nc2cc(NC(=O)c3ccc(O*)cc3)cc(-c3nc4ccccc4[nH]3)c2)cc1 (repeat unit) | 230.00
7 | *C(=O)Nc1ccc(Oc2ccccc2-c2ccccc2Oc2ccc(NC(=O)c3ccc4c(c3)C(=O)N(c3ccc(N5C(=O)c6ccc(*)cc6C5=O)cc3)C4=O)cc2)cc1 (repeat unit) | 268.00
8 | *CCOC(=O)CCCCCCCCC(=O)O* (repeat unit) [Poly(ethylene sebacate)] | -29.6 ± 3.9
9 | *c1ccc2c(c1)C(CCCCCC)(CCCCCC)c1cc(-c3ccc4c(c3)c3cc(*)ccc3n4-c3ccc(C)cc3)ccc1-2 (repeat unit) | 155.00
10 | *Oc1ccc(CC(NC(=O)CCc2ccc(OC(=O)COCC(*)=O)cc2)C(=O)OCCOCCOCC)cc1 (repeat unit) | 27.00
11 | *Oc1ccc(CC(NC(=O)CCc2ccc(OC(=O)CCCCC(*)=O)cc2)C(=O)OCCCCCCCCCCCC)cc1 (repeat unit) | 22.00
12 | *CCCCCCN1C(=O)c2ccc(Oc3ccc4c(c3)C(=O)N(*)C4=O)cc2C1=O (repeat unit) | 164.00
13 | *CCCP(CCCNC(=O)CCCCC(=O)N*)CC(C)C (repeat unit) | 71.00
14 | *CC(*)(C)C(=O)OCCCCCCCCCCOc1ccc(/N=N/c2ccccc2)cc1 (repeat unit) | 56.00
15 | *O[Si](C)(C)c1ccc2ccc([Si](*)(C)C)cc2c1 (repeat unit) | 26.00
16 | *c1cccc(P(=O)(c2ccc(C(F)(F)F)cc2)c2cccc(-n3c(=O)c4c(-c5ccc(C(F)(F)F)cc5)c5c(=O)n(*)c(=O)c5c(-c5ccc(C(F)(F)F)cc5)c4c3=O)c2)c1 (repeat unit) | 324.00
17 | *CCC(C)(C)C(*)(C)C (repeat unit) | 87.00
18 | *Nc1ccc(NC(=O)c2ccc(NC(=O)CCCCCCCCCCCCC(=O)Nc3ccc(C(*)=O)cc3)cc2)cc1C(=O)OCCCCCCCCCCCC (repeat unit) | 199.50
19 | *Oc1ccc(Oc2ccc(Oc3ccc(C(C)(C)c4ccc(*)cc4)cc3)cc2)cc1 (repeat unit) | 122.00
20 | *c1ccc(C(F)(F)C(*)(F)F)cc1 (repeat unit) | 77.0
21 | *CC(*)C(=O)OC(CC)CC (repeat unit) | -6.00
22 | *CC(F)(F)C(F)(F)C(F)(F)COC(=O)NCCCCCCNC(=O)O* (repeat unit) | 16.00
23 | *Oc1ccc(C(C)(C)c2ccc(OC(=O)c3cccc(Oc4cccc(C(*)=O)c4)c3)cc2)cc1 (repeat unit) | 85.00

Row | Compound | glass transition temperature [°C]
24 | *CC(*)C(=O)Oc1ccc(C(=O)OCC)cc1 (repeat unit) | 37.00
25 | *CC(*)(C)C(=O)OCc1ccc[se]1 (repeat unit) | 56.00
26 | *CCOCCOC(=O)NCCCCCCNC(=O)O* (repeat unit) | 17.00
27 | *N(C)[Si](C)(C=C)N(C)[Si](*)(C)C (repeat unit) | -42.00
28 | *Cc1cccc(COC(=O)Nc2ccc(Cc3ccc(NC(=O)O*)cc3)cc2)c1 (repeat unit) | 106.00
29 | *c1ccc2c(c1)C(=O)N(c1cccc(C(=O)Nc3ccc(Oc4ccc(C(C)(C)c5ccc(Oc6ccc(NC(=O)c7cccc(N8C(=O)c9ccc(C(*)(C(F)(F)F)C(F)(F)F)cc9C8=O)c7)cc6)cc5)cc4)cc3)c1)C2=O (repeat unit) | 259.00
30 | *C(*)(F)F (repeat unit) [Poly(tetrafluoroethylene)] | 118.42 ± 2.2
31 | *Oc1cccc(C(=O)c2ccc(*)cc2)c1 (repeat unit) | 137.00
32 | *C(=O)c1ccc2c(c1)C(=O)N(c1cccc(Cc3ccccc3N3C(=O)c4ccc(*)cc4C3=O)c1)C2=O (repeat unit) | 258.00
33 | *Oc1cc(Oc2cccc(NC(=O)c3cc(Oc4ccc(C(=O)O)c(C(=O)Nc5cccc(*)c5)c4)ccc3C(=O)O)c2)ccc1C#N (repeat unit) | 195.80
34 | *CCOCCOCCOc1ccc(/C=C(\C)c2ccc(O*)cc2)cc1 (repeat unit) | 16.00
35 | *c1ccc(Oc2ccc(N3C(=O)c4ccc(C(c5ccc6c(c5)C(=O)N(c5ncc(*)s5)C6=O)(C(F)(F)F)C(F)(F)F)cc4C3=O)cc2)cc1 (repeat unit) | 268.20
36 | *c1cccc(Cc2cccc(N3C(=O)c4ccc([Si](C)(C)O[Si](C)(C)c5ccc6c(c5)C(=O)N(*)C6=O)cc4C3=O)c2)c1 (repeat unit) | 217.00
37 | *CC(*)C(=O)OC(C)C (repeat unit) | -5.00
38 | *c1ccc(-c2cc(-c3ccc(-c4ccccc4)cc3)cc(-c3ccc(N4C(=O)c5ccc(NC(=O)Nc6ccc(NC(=O)Nc7ccc8c(c7)C(=O)N(*)C8=O)cc6)cc5C4=O)cc3)n2)cc1 (repeat unit) | 243.00
39 | *Oc1ccc(Oc2ccc(Oc3cccc(C(=O)Oc4ccc(OC(=O)c5cccc(*)c5)cc4)c3)cc2)cc1 (repeat unit) | 101.00
40 | *Nc1ccc(Br)cc1-c1ccc(NC(=O)c2ccc(C(*)=O)cc2)cc1 (repeat unit) | 285.00
41 | *C(=O)OCCOC(=O)c1ccc(C(=O)OCCOC(=O)N2CCN(*)CC2)cc1 (repeat unit) | 53.00
42 | *C1C(=O)N(c2ccccc2C(=O)OCC)C(=O)C1* (repeat unit) | 230.00
43 | *c1ccc(C2(c3ccc(-c4cc(-c5ccccc5)c5cc(Oc6ccc7nc(*)cc(-c8ccccc8)c7c6)ccc5n4)cc3)c3ccccc3C(=O)c3ccccc32)cc1 (repeat unit) | 340.00
44 | *C(F)C(*)(F)F (repeat unit) | 31.5
45 | *CC(*)c1ccccc1COCC (repeat unit) | 74.00
46 | *C(=O)Nc1ccc(Oc2ccc(-c3ccc(Oc4ccc(NC(=O)c5ccc6c(c5)C(=O)N(c5ccc(Oc7ccc(C(C)(C)c8ccc(Oc9ccc(N%10C(=O)c%11ccc(*)cc%11C%10=O)cc9)cc8)cc7)cc5)C6=O)cc4)cc3)cc2)cc1 (repeat unit) | 283.00

Row | Compound | glass transition temperature [°C]
47 | *c1ccc(Nc2ccc(C3(c4ccc(Nc5ccc(S(*)(=O)=O)cc5)c(F)c4)c4ccccc4-c4ccccc43)cc2F)cc1 (repeat unit) | 145.00
48 | *Nc1ccc(Cc2ccc(NC(=O)NCCCCCCCCNC(*)=O)cc2)cc1 (repeat unit) | 50.00
49 | *CC(*)C(=O)OCCCSC (repeat unit) | -65.00
50 | *CCOC(=O)C1CCC(C(=O)O*)CC1 (repeat unit) | 25.00
51 | *c1ccc(Oc2ccc(C(=O)c3cccc(C(=O)c4ccc(Oc5ccc(N6C(=O)c7ccc(-c8ccc9c(c8)C(=O)N(*)C9=O)cc7C6=O)cc5)cc4)c3)cc2)cc1 (repeat unit) | 222.00
52 | *Oc1ccc(Oc2ccc(C(=O)c3ccc(-c4ccc(C(=O)c5ccc(*)cc5)cc4)cc3)cc2)cc1-c1cccc(C)c1 (repeat unit) | 170.00
53 | *C(=O)Nc1ccc(Oc2cccc(Oc3ccc(NC(=O)c4ccc5c(c4)C(=O)N(c4cccc(Oc6cccc(Oc7cccc(N8C(=O)c9ccc(*)cc9C8=O)c7)c6C#N)c4)C5=O)cc3)c2)cc1 (repeat unit) | 207.00
54 | *CC(CN1C(=O)C2C3C=CC(C3)C2C1=O)O* (repeat unit) | 87.50
55 | *CC(*)(C)C(=O)OC1CC(C)CC(C)(C)C1 (repeat unit) | 125.00
56 | *c1ccc(Oc2ccc(-n3c(=O)c4c(Oc5ccc(OCCCCCCCC)cc5)c5c(=O)n(*)c(=O)c5c(Oc5ccc(OCCCCCCCC)cc5)c4c3=O)cc2)cc1 (repeat unit) | 234.50
57 | *Nc1cc(NC(=O)c2ccc(-c3ccc(C(*)=O)cc3)cc2)cc(-c2nnc(-c3ccccn3)o2)c1 (repeat unit) | 120.00
58 | *C(=O)Nc1ccc(-c2ccc(NC(=O)c3ccc4c(c3)C(=O)N(c3ccc(S(=O)(=O)c5ccc(N6C(=O)c7ccc(*)cc7C6=O)cc5)cc3)C4=O)cc2)cc1 (repeat unit) | 370.00
59 | *CC(*)N1CCCC1=O (repeat unit) [Poly(N-vinyl pyrrolidone)] | 145 ± 7.9
60 | *CC(COCOCC(C)([N+](=O)[O-])[N+](=O)[O-])O* (repeat unit) | -15.00
61 | *CC(*)c1ccc(C(=O)CC)cc1 (repeat unit) | 102.00
62 | *CC(*)OC(=O)c1cccc([N+](=O)[O-])c1 (repeat unit) | 93.00
63 | *CCCC1(CCCNC(=O)c2cccc(C(=O)N*)c2)c2ccccc2-c2ccccc21 (repeat unit) | 175.00
64 | *CC(O)COC(=O)CCCCCCCCCCC(=O)OCC(O)COc1ccc(C(C)(C)c2ccc(O*)cc2)cc1 (repeat unit) | 25.00
65 | */C=C/CCCCCCCCCC* (repeat unit) | -53.00
66 | *Nc1cc(NC(=O)c2ccc(C(*)=O)cc2)cc(-c2nnc(-c3ccccn3)o2)c1 (repeat unit) | 230.00
67 | */C=C/C1CC(*)C(F)(F)C1(F)OC(F)(F)C(F)(F)C(F)(F)F (repeat unit) | 77.00
